Measured values taken from patent publication US20240238425A1, “HSD17B13 Inhibitors and/or Degraders” (Pfizer Inc., priority 2022, published 2024).
Where a name gives a salt, the structure may show the parent alone.

System: HiBiT-HSD17β13 fusion protein (N-terminal HiBiT-tagged HSD17β13 isoform D) in Huh7 HiBiT-HSD17β13 OE cells
Assay: Whole-cell Huh7-HSD17B13 HiBiT assay (degrader potency and maximal efficacy, luminescence readout)
Assay type: cell-based, human
Details: 24 hour incubation, geometric mean, * = geometric mean for all forms tested (parent and salt forms); for DC50: read-out: Huh7_HIBIT-HSD17β13_DC50 GMean DC50; for Huh7_HIBIT-HSD17β13_DC50 GMean Asymptote Maximum: max. concentration 1 μM
Procedure, shortened: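 Huh7 cells stably overexpressing N-terminal HiBiT-tagged HSD17β13 isoform D, clone matched to primary hepatocyte expression, were exposed to an 11-point, 1 in 3.162 dilution series (top 1 μM final) for 24 h at 37° C. Lytic HiBiT luminescence was normalised to DMSO and parental-cell controls; DC50 from four-parameter logistic fit, with CellTiter-Glo counter screen.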

Row | Structure (SMILES) | DC50 | Huh7_HIBIT-HSD17β13_DC50 GMean Asymptote Maximum
1 | Cc1sc([C@]23CC[C@](CNC(=O)c4cc(F)c(O)c(F)c4F)(CC2)CC3)nc1-c1ccnc(N2CCN(CCCc3ccc4c(c3)n(C)c(=O)n4C3CCC(=O)NC3=O)CC2)n1 (mixture of isomers) [Example 122, N-{[4-(4-{2-[4-(3-{1-[(3RS)-2,6-dioxopiperidin-3-yl]-3-methyl-2-oxo-2,3-dihydro-1H-benzimidazol-5-yl}propyl)piperazin-1-yl]pyrimidin-4-yl}-5-methyl-1,3-thiazol-2-yl)bicyclo[2.2.2]octan-1-yl]methyl}-2,3,5-trifluoro-4-hydroxybenzamide] | 0.23 nM | 73%
2 | Cn1c(=O)n(C2CCC(=O)NC2=O)c2ccc(CCCN3CC(F)(F)CC4(CCN(c5ccc6cn([C@H]7CC[C@H](CNC(=O)c8cc(F)c(O)c(F)c8F)CC7)nc6c5)C4=O)C3)cc21 (mixture of isomers) [Example 65, N-{[(1r,4r)-4-{6-[7-(3-{1-[(3RS)-2,6-dioxopiperidin-3-yl]-3-methyl-2-oxo-2,3-dihydro-1H-benzimidazol-5-yl}propyl)-9,9-difluoro-1-oxo-2,7-diazaspiro[4.5]decan-2-yl]-2H-indazol-2-yl}cyclohexyl]methyl}-2,3,5-trifluoro-4-hydroxybenzamide, trifluoroacetate salt] | 3.8 nM | 81%
3 | Cn1c(=O)n(C2CCC(=O)NC2=O)c2ccc(CN3CCN(c4ccc5cn([C@H]6CC[C@H](CNC(=O)c7cc(F)c(O)c(F)c7F)CC6)nc5c4)CC3)cc21 (mixture of isomers) [Example 51, N-{[(1r,4r)-4-{6-[4-({1-[(3RS)-2,6-dioxopiperidin-3-yl]-3-methyl-2-oxo-2,3-dihydro-1H-benzimidazol-5-yl}methyl)piperazin-1-yl]-1H-indazol-2-yl}cyclohexyl]methyl}-2,3,5-trifluoro-4-hydroxybenzamide, trifluoroacetate salt] | 2.1 nM | 73%
4 | Cc1ccc(C(=O)N2CCC(OC3CCN(c4ncc(-c5ccc6cn([C@H]7CC[C@H](CNC(=O)c8cc(F)c(O)c(F)c8F)CC7)nc6c5)cn4)CC3)CC2)cc1N1CCC(=O)NC1=O [Example 57, N-{[(1r,4r)-4-(6-{2-[4-({1-[3-(2,4-dioxo-1,3-diazinan-1-yl)-4-methylbenzoyl]piperidin-4-yl}oxy)piperidin-1-yl]pyrimidin-5-yl}-2H-indazol-2-yl)cyclohexyl]methyl}-2,3,5-trifluoro-4-hydroxybenzamide, trifluoroacetate salt] | 4.8 nM | 76%
5 | Cn1c(=O)n(C2CCC(=O)NC2=O)c2cccc(CN3CCN(c4ccc5cn([C@H]6CC[C@H](CNC(=O)c7cc(F)c(O)c(F)c7F)CC6)nc5c4)CC3)c21 (mixture of isomers) [Example 52, N-{[(1r,4r)-4-{6-[4-({1-[(3RS)-2,6-dioxopiperidin-3-yl]-3-methyl-2-oxo-2,3-dihydro-1H-benzimidazol-4-yl}methyl)piperazin-1-yl]-2H-indazol-2-yl}cyclohexyl]methyl}-2,3,5-trifluoro-4-hydroxybenzamide, trifluoroacetate salt] | 1.6 nM | 80%
6 | Cn1c(=O)n(C2CCC(=O)NC2=O)c2ccc(CCCN3CC[C@@H]4CN(c5ccc6cn([C@H]7CC[C@H](CNC(=O)c8cc(F)c(O)c(F)c8F)CC7)nc6c5)C[C@H]4C3)cc21 (mixture of isomers) [Example 101, N-{[(1r,4r)-4-{6-[(3aR,7aS)-5-(3-{1-[(3RS)-2,6-dioxopiperidin-3-yl]-3-methyl-2-oxo-2,3-dihydro-1H-benzimidazol-5-yl}propyl)octahydro-2H-pyrrolo[3,4-c]pyridin-2-yl]-2H-indazol-2-yl}cyclohexyl]methyl}-2,3,5-trifluoro-4-hydroxybenzamide, formate salt] | 0.88 nM | 74%
